Experimental data published in patent US20250304537A1 (Repare Therapeutics Inc., priority 2022, published 2025).
pIC50: −log10 of the molar value.

Target: recombinant human Myt1 (full length PKMYT1) (Homo sapiens (Human), UniProt Q99640)
Assay: Recombinant human Myt1 kinase assay (ADP-Glo)
Type: biochemical
Settings: 10 μM ATP
Description: Detection of Myt1 kinase activity utilized a recombinant human Myt1 kinase assay measuring the hydrolysis of ATP using a commercially available ADP-Glo Assay (ADP-Glo™ Kinase Assay from Promega, 10 000 assays, #V9102). Briefly, 5 μL recombinant human Myt1 (full length PKMYT1 recombinant human protein expressed in insect cells from Thermo Fisher #A33387; ˜80% purity) was prepared in reaction buffer (70 mM HEPES, 3 mM MgCl2, 3 mM MnCl2, 50 μg/ml PEG 20000, 3 μM Na-orthovanadate, 1.2 mM DTT) and added to 384 well white polystyrene, flat bottom well, non-treated, microplate (Corning #3572). After this, 5 μL of compounds (diluted in reaction buffer to 0.5% DMSO) was added to the microplate and the plate was spun briefly and incubated at 22° C. for 15 minutes. Ultra-Pure Adenosine Triphosphate (ATP) solution (ADP-Glo kit from Promega) was diluted in reaction buffer and 5 μL was added to the microplate, spun down briefly and incubated for 60 minutes at 30° C. The final Myt1 enzyme concentration was 18 nM and the final ATP concentration was 10 μM. After the 60-minute incubation, 15 μL of ADP-Glo reagent was added and the plate was spun briefly and sealed and incubated in the dark for 40 minutes at 22° C. Following this, 30 μL of kinase detection reagent was added per well and the plate was spun briefly, sealed and incubated for 45-60 minutes at 22° C. in the dark. Luminescence was read using the Envision (250 ms integration). The IC50 and the % max inhibition were calculated for each inhibitor compound tested.

recombinant human Myt1 (full length PKMYT1), sequence (Q99640 whole entry): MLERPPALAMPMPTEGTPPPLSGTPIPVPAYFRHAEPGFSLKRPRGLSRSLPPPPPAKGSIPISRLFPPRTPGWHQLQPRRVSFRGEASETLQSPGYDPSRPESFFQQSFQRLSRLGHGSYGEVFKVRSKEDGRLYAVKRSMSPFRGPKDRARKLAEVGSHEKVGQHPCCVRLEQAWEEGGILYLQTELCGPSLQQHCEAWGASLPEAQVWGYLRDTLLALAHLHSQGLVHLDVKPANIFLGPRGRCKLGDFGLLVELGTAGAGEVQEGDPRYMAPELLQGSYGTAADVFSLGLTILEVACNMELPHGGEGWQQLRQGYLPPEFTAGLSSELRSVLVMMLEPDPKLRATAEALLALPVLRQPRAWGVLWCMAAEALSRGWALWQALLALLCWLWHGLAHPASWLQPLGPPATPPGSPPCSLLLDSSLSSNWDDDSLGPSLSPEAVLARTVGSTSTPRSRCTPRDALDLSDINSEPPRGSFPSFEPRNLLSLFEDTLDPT

Structure (SMILES)	pIC50
CSC(C)COc1cccc(-c2cc(-c3c(C)ccc4[nH]ncc34)c(N)c(C(N)=O)n2)n1 (centres unmarked) [Compound 375]	7.85
Cc1ccc(O)cc1-c1c(N)c(C(N)=O)nc2ccccc12 [Compound 10, 3-amino-4-(5-hydroxy-2-methylphenyl)quinoline-2-carboxamide]	6.69
Cc1ccc2[nH]ncc2c1-c1nc(-c2cccnc2)nc(C(N)=O)c1N [Compound 99]	7.23
Cc1ccc2[nH]ncc2c1-c1cc(-c2cccc(OCC(F)(F)F)c2)nc(C(N)=O)c1N [Compound 175]	6.44
CCC(C)COc1cccc(-c2cc(-c3c(C)ccc4[nH]ncc34)c(N)c(C(N)=O)n2)n1 (centres unmarked) [Compound 361]	7.46
COCCOc1cccc(-c2cc(-c3c(C)ccc4[nH]ncc34)c(N)c(C(N)=O)n2)n1 (atropisomer, axis not shown) [Compound 270]	5.94
Cc1ccc(O)cc1-c1nc(-c2ccncc2)nc(C(N)=O)c1N [Compound 24]	7.74
Cc1ccc2[nH]ncc2c1-c1cc(-c2ccnc(OCc3noc(C4CCCC4)n3)n2)nc(C(N)=O)c1N [Compound 300]	7.00
Cc1ccc(O)cc1-c1nc(-c2cc(F)cc(C(F)(F)F)c2)nc(C(N)=O)c1N [Compound 32]	6.76
Cc1nc(COc2nccc(-c3cc(-c4c(C)ccc5[nH]ncc45)c(N)c(C(N)=O)n3)n2)co1 [Compound 316]	7.70
CCC(Nc1cccc(-c2cc(-c3c(C)ccc4[nH]ncc34)c(N)c(C(N)=O)n2)n1)c1ccccc1 (centres unmarked) [Compound 331, 5-amino-4-(5-methyl-1H-indazol-4-yl)-6′-((1-phenylpropyl)amino)-[2,2′-bipyridine]-6-carboxamide]	7.27
Cc1ccc(O)cc1-c1nc(-c2cccnc2)nc(C(N)=O)c1N [Compound 21]	6.69
Cc1ccc2[nH]ncc2c1-c1cc(-c2ccnc(O[C@@H](C)c3ncccn3)n2)nc(C(N)=O)c1N (atropisomer, axis not shown) [Compound 357]	8.30
Cc1ccc2[nH]ncc2c1-c1cc(-c2cncs2)nc(C(N)=O)c1N [Compound 98]	5.71
Cc1ccc2[nH]ncc2c1-c1cc(-c2ccc(=O)[nH]c2)nc(C(N)=O)c1N [Compound 178]	7.17
Cc1ccc(O)cc1-c1nc(-c2ccc(C#N)cc2)nc(C(N)=O)c1N [Compound 23]	7.29
CO[C@@H](COc1cccc(-c2cc(-c3c(C)ccc4[nH]ncc34)c(N)c(C(N)=O)n2)c1)c1ccccc1 [Compound 351]	6.83
Cc1ccc2[nH]ncc2c1-c1nc(-c2cccc(C(=O)N(C)C)c2)nc(C(N)=O)c1N [Compound 284]	7.42
Cc1ccc2[nH]ncc2c1-c1nc(-c2ccc(Oc3ccccc3)cc2)nc(C(N)=O)c1N [Compound 113]	5.95
Cc1ccc2[nH]ncc2c1-c1cc(-c2cccc(OCc3c(F)c(F)c(F)c(F)c3F)n2)nc(C(N)=O)c1N [Compound 258]	< 5.70
Cc1cc(-c2nc(C(N)=O)c(N)c(-c3c(C)ccc4[nH]ncc34)n2)ccc1C#N [Compound 151]	7.57

Structure (SMILES)	pIC50
Cc1nnc(COc2cccc(-c3cc(-c4c(C)ccc5[nH]ncc45)c(N)c(C(N)=O)n3)n2)o1 [Compound 318]	7.68
COCCCOc1ccc(-c2nc(C(N)=O)c(N)c(-c3c(C)ccc4[nH]ncc34)n2)cc1 [Compound 138]	7.37
Cc1ccc2[nH]ncc2c1-c1cc(-c2cccc(N[C@@H](CO)c3ccccc3)n2)nc(C(N)=O)c1N [Compound 275]	6.85
Cc1ccc2[nH]ncc2c1-c1nc(-c2ccccc2NC(=O)C(C)C)nc(C(N)=O)c1N [Compound 407]	8.40
Cc1cccc(-c2nc(C(N)=O)c(N)c(-c3cc(O)ccc3C)n2)c1 [Compound 30]	7.13
Cc1ccc2[nH]ncc2c1-c1nc(-c2ccc(C#N)s2)nc(C(N)=O)c1N [Compound 158]	7.68
Cc1ccc2[nH]ncc2c1-c1cc(-c2ccnc(OCCc3ccncc3)n2)nc(C(N)=O)c1N [Compound 263]	7.72
COCCOc1ccc(-c2nc(C(N)=O)c(N)c(-c3c(C)ccc4[nH]ncc34)n2)cc1 [Compound 124]	7.60
Cc1c(-c2ccccn2)nc(C(N)=O)c(N)c1-c1cccc2[nH]ncc12 [Compound 246, 5-amino-4-(1H-indazol-4-yl)-3-methyl-[2,2′-bipyridine]-6-carboxamide]	6.14
Cc1n[nH]c2cccc(-c3nc(-c4ccccc4)nc(C(N)=O)c3N)c12 [Compound 116]	< 5.30
Cc1ccnc(-c2cc(-c3c(C)ccc4[nH]ncc34)c(N)c(C(N)=O)n2)c1 [Compound 269]	7.74
NC(=O)c1nc(-c2cccnc2)cc(-c2c(C(F)F)ccc3[nH]ncc23)c1N [Compound 321, 5-amino-4-(5-(difluoromethyl)-1H-indazol-4-yl)-[2,3′-bipyridine]-6-carboxamide]	< 5.70
Cc1ccc2[nH]ncc2c1-c1nc(-c2cccc(C(=O)O)c2)nc(C(N)=O)c1N [Compound 150]	5.95
Cc1ccc2[nH]ncc2c1-c1cc(-c2ccnc(N[C@H]3c4ccccc4C[C@H]3O)n2)nc(C(N)=O)c1N (atropisomer, axis not shown) [Compound 376]	7.82
COc1cccc(-c2nc(C(N)=O)c(N)c(-c3c(C)ccc4[nH]ncc34)n2)c1 [Compound 141]	7.64
Cc1ccc2[nH]ncc2c1-c1nc(-c2ccc(CN3CCOCC3)cc2)nc(C(N)=O)c1N [Compound 147]	6.66
Cc1ccc2[nH]ncc2c1-c1nc(-c2cccc(Oc3ccc(F)cc3)c2)nc(C(N)=O)c1N [Compound 287]	7.21
Cc1ccc2[nH]ncc2c1-c1cc(Nc2ccccc2)nc(C(N)=O)c1N [Compound 335, 3-amino-4-(5-methyl-1H-indazol-4-yl)-6-(phenylamino)picolinamide]	6.71
Cc1ccc2[nH]ncc2c1-c1cc(-c2cccc(OCc3cncs3)n2)nc(C(N)=O)c1N [Compound 279]	8.10
Cc1ccc2[nH]ncc2c1-c1nc(-c2ccc(C(=O)O)s2)nc(C(N)=O)c1N [Compound 162]	6.70
Cc1ccc2[nH]ncc2c1-c1nc(-c2cccc(N3CCCC3)c2)nc(C(N)=O)c1N [Compound 142]	7.27

Structure (SMILES)	pIC50
Cc1ccc2[nH]ncc2c1-c1cc(-c2cccc(OC[C@H]3CCCN3)n2)nc(C(N)=O)c1N (atropisomer, axis not shown) [Compound 387]	6.19
Cc1ccc(O)c(C)c1-c1cc(-c2ccnnc2)cc(C(N)=O)c1N [Compound 149]	6.13
Cc1ccc2[nH]ncc2c1-c1cc(-c2ccnc(OCCN3CCCC3)n2)nc(C(N)=O)c1N (atropisomer, axis not shown) [Compound 233]	6.07
CCOC(=O)COc1cccc(-c2nc(C(N)=O)c(N)c(-c3c(C)ccc4[nH]ncc34)n2)c1 [Compound 293]	7.80
COCCOc1cccc(-c2nc(C(N)=O)c(N)c(-c3c(C)ccc4[nH]ncc34)n2)c1 [Compound 286]	7.39
Cc1ccc2[nH]ncc2c1-c1cc(-c2ccnc(N3CCCCC3CCO)n2)nc(C(N)=O)c1N (centres unmarked) [Compound 404]	7.62
Cc1ccc2[nH]ncc2c1-c1cc(-c2csc(C3(O)COC3)n2)nc(C(N)=O)c1N [Compound 223]	7.21
Cc1ccccc1-c1nc(C(N)=O)c(N)c(-c2cc(O)ccc2C)n1 [Compound 31]	6.47
Cc1ccc2[nH]ncc2c1-c1nc(-c2cccc(CNc3ncccn3)c2)nc(C(N)=O)c1N [Compound 295]	7.57
Cc1ccc2[nH]ncc2c1-c1nc(-c2cccc3nc[nH]c23)nc(C(N)=O)c1N [Compound 378]	7.74
Cc1ccc2[nH]ncc2c1-c1cc(-c2cccc(OCCN3CCCC3)n2)nc(C(N)=O)c1N (atropisomer, axis not shown) [Compound 271]	5.96
Cc1ccc2[nH]ncc2c1-c1nc(-c2cccc(C=O)c2)nc(C(N)=O)c1N [Compound 304]	7.57
Cc1ccc2[nH]ncc2c1-c1cc(-c2ccnc(N[C@H]3c4ccccc4C[C@@H]3O)n2)nc(C(N)=O)c1N (atropisomer, axis not shown) [Compound 372]	< 5.70
Cc1ccc2[nH]ncc2c1-c1cc(-c2ccnc(OCC3CCC(=O)N3)n2)nc(C(N)=O)c1N (centres unmarked) [Compound 317]	7.89
Cc1ccc2[nH]ncc2c1-c1cc(-c2cnc(C(C)(C)O)s2)nc(C(N)=O)c1N [Compound 218]	6.64
Cc1ccc2[nH]ncc2c1-c1nc(-c2cccc(C(C)(C)C#N)c2)nc(C(N)=O)c1N [Compound 126]	7.57
Cc1ccc2[nH]ncc2c1-c1cc(-c2cccc(OC[C@H](N)C(C)C)n2)nc(C(N)=O)c1N (atropisomer, axis not shown) [Compound 345]	5.99
Cc1ccc2[nH]ncc2c1-c1nc(-c2ccnc(N3CCOCC3)c2)nc(C(N)=O)c1N [Compound 155]	7.82
CO[C@@H](COc1cccc(-c2nc(C(N)=O)c(N)c(-c3c(C)ccc4[nH]ncc34)n2)c1)c1ccccc1 [Compound 354]	6.53
Cc1ccc2[nH]ncc2c1-c1cc(-c2ccnc(NCC3(O)CC3)n2)nc(C(N)=O)c1N [Compound 341]	7.80
